Data taken from patent US6365173B1, “Stereocomplex polymeric carriers for drug delivery” (Efrat Biopolymers Ltd., priority 1999, dated 2002).
One block for each compound: values may come before it.

Experiments:
Type in all cases: physicochemical
[1] = In vitro release of leuprolide from D-PLA/L-PLA complex powder; conditions: in 40 days; 4 mg leuprolide acetate in D-PLA/L-PLA complex powder; phosphate buffer pH 7.4 at 37° C.
Method: Preparation of complex: Solutions of leuprolide acetate in acetonitrile (4 mg) and D-PLA, (58 mg, Mw=100,000) and L-PLA (38 mg, Mw=30,000) in acetonitrile were mixed together (total 5 ml) and allowed to stir for 3 days at 50° C. The precipitated powder was isolated by filtration to yield 98 mg of 1 micron size porous particles. No leuprolide remained in the acetonitrile solution.
In vitro release was conducted in phosphate buffer pH 7.4 at 37° C. Leuprolide concentration was determined by HPLC (acetonitrile:water, C18 column, 1 ml/min). About 37% of the drug was released constantly in 40 days.

[2] = Release of lidocaine from compression molded stereocomplex devices in buffer; conditions: compression molded D-PLA/L-PLA stereocomplex (200 mg, Mw=30,000) with lidocaine (20 mg); buffer solution pH 7.4 at 37° C.
Method: A fine powder of the nano-discs stereocomplexed of D-PLA and L-PLA and their complexes which were of flat shapes of discs, rods, and triangles, as analyzed in Example 3, provided a unique opportunity for the preparation of drug delivery devices. Devices were prepared by compression molding of these nanoscale structures with drugs.
The disintegration time and the release of the incorporated drug in buffer solutions was slower than the compression molded devices of the corresponding regular polymers. The regular polymer powders are difficult to obtain and their properties are erratic, since they are prepared by precipitation in non-aqueous solvent and grinding at a temperature below the glass transition temperature which provides irregular particle size and shape. The particles formed by stereocomplex formation are of well-defined flat crystallites that are easy to compression mold.
In a typical experiment, disc (10×2 mm) and rod shape (4×10 mm) devices were prepared by mixing the stereocomplex powder of D-PLA and L-PLA (200 mg, Mw=30,000) with lidocaine (20 mg) and compression molding into discs of […] size.
Lidocaine was released constantly for 30 days when placed in buffer solution p H7.4 at 37° C.

[3] = MTX release from PLA stereocomplex tablets in phosphate buffer; conditions: first 10 days; 10 ml pH 7.4 phosphate buffer at 37° C., shaking 150 RPM
Method: Formulations: MTX was incorporated in a stereocomplex of D-PLA/L-PLA (Mw=30,000) prepared by precipitation in acetonitrile. The drug in the form of a powder was mixed with the stereocomplex in the form of a powder, and the mixture compression molded to form tablets. Alternatively, the stereocomplex and MTX were dissolved in dichloromethane, and solvent evaporated to yield a fine powder. For comparison, a solution of random amorphic DL-PLA (Mw=30,000) and MTX was evaporated to dryness to yield a clear flexible and strong yellow film which could be formed into a powder through the use of liquid nitrogen.
In a typical experiment, 300 mg of PLA 1:1 stereocomplex was dissolved in dichloromethane. MTX (5% w/w) was added to the solution, and the mixture was vortexed for two minutes. The solvent was evaporated with a nitrogen stream, to yield a very fine powder. […] Discs were prepared by compression molding of the MTX—stereocomplex power (100 mg) using a stainless steel mold (internal diameter 10 mm) and a Carver Press at 10 tons. Alternatively, 300 mg of PLA 1:1 stereocomplex fine powder (average particle size 2.2 microns was mixed with MTX (150 mg) and the uniform powder was compressed into tablets of 200 mg each.
MTX release was conducted in 10 ml of pH 7.4 phosphate buffer at 37° C. with constant shaking of 150 RPM. […]

[4] = Ibuprofen release from D-PLA-HSA stereocomplex tablets in phosphate buffer; conditions: ibuprofen (100 mg) with D-PLA-HSA or D-PLA-L-PLA-HSA (500 mg), 300 mg tablets; phosphate buffer at physiological pH 37° C.
Method: The precipitate of D-PLA-HSA prepared as described in Example 9 was also used as a matrix carrier for the delivery of small drugs. In a typical experiment, a fine powder of ibuprofen (100 mg) was mixed with the D-PLA-HSA or D-PLA-L-PLA-HSA (500 mg) and the powder was compressed into tablets of 300 mg each. The tablets released the ibuprofen for one week when placed in phosphate buffer at physiological pH 37° C. In similar experiments, other proteins were stereocomplexed with PLA enantiomers including fibrin, fibrinogen, collagen and gelatin.

[5] = LHRH release from PLA stereocomplex powders in phosphate buffer (syringe method, HPLC); conditions: nanosize complexes of LHRH with D-PLA, precipitated in hot acetonitrile
Method: The analysis of LHRH was conducted using the following HPLC method: Mobile phase comprised 30% acetonitrile, 70% TEAP (triethylammoniumphosphate) buffer […] pH-3. Column comprised Lichrosphere RP-18 […] (MERCK); Detector. UV 278 nm and flow rate at 1 ml/min.
All samples were filtered through a 2μ filter. One drop of phosphoric acid was added to the sample solutions before injection. The retention time for LHRH was 6.5 minutes and a calibration curve was generated (r2=0.999).
Since the powder of the LHRH in the stereocomplex is very thin, all the attempts to sink it at the release medium failed. The release was conducted in the following way: 100 mg of the powder in 5 ml phosphate buffer were added to a 10 ml syringe. The edge of the syringe was sealed and constantly shaken at a rate of 150 RPM and a temperature of 37° C. At each interval of time, the syringe was inverted so that the solid floated at the top of the buffer and all of the buffer was pushed out of the syringe in a dropwise fashion. Using this technique, the powders of LHRH in PLA stereocomplex (formulations a-e) were analyzed against a control blank of PLA stereocomplex (no drug).

[6] = TRH release from D-PLA complex powder in phosphate buffer; conditions: D-PLA complex powder (10% w/w TRH) dispersed in phosphate buffer pH7.4 at 37° C.
Method: TRH is a tripeptide with the following structure: pL-Glu-L-His-L-Pro_NH2. 250 mg of D-PLA (Mw=30,000 or Mw=6,000) were mixed with 25 mg (10% w/w) of TRH in 10 ml acetonitrile at 60° C. The solution became clear after 15 minutes and remained clear for 72 hours, at which point precipitate formed. The solution was very turbid, but could not be filtered at room temperature due to the fine particle size of the precipitate. After cooling at 0° C. over night, the precipitate was filtered. The TRH concentration in the acetonitrile solution and in the powder was analyzed as described above using the Lowry method for peptide analysis. Over 90% of the drug was determined to be in the powder and a negligible amount of the drug was found in the acetonitrile solution. When dispersed in phosphate buffer pH7.4 at 37° C., TRH was constantly released for 6 weeks.

Compound: CCNC(=O)[C@@H]1CCCN1C(=O)[C@H](CCCNC(=N)N)NC(=O)[C@H](CC(C)C)NC(=O)[C@@H](CC(C)C)NC(=O)[C@H](Cc1ccc(O)cc1)NC(=O)[C@H](CO)NC(=O)[C@H](Cc1c[nH]c2ccccc12)NC(=O)[C@H](Cc1c[nH]cn1)NC(=O)[C@@H]1CCC(=O)N1 [Leuprolide, leuprolide acetate]
- drug (leuprolide) released constantly [1]: About 37%

Compound: CCN(CC)CC(=O)Nc1c(C)cccc1C [Lidocaine, lidocaine]
- time over which lidocaine was released constantly [2]: 30 days

Compound: Leutinizing Hormone Releasing Hormone [LHRH]
- time over which LHRH was constantly released from nanospheres [5]: over 3 weeks

Compound: pL-Glu-L-His-L-Pro_NH2 [TRH]
- time over which TRH was constantly released [6]: 6 weeks

Other lines, results leading:

- MTX constantly released from the PLA stereocomplex [3]: About 30%
Compound: CN(Cc1cnc2nc(N)nc(N)c2n1)c1ccc(C(=O)N[C@@H](CCC(=O)O)C(=O)O)cc1 [MTX, Methotrexate]

- time over which the tablets released ibuprofen [4]: one
Compound: CC(C)Cc1ccc(C(C)C(=O)O)cc1 (stereo not drawn) [ibuprofen]
